Test [1] has as its system CSF. As to conditions: literature; cited from earlier work.
In a further test the test system is bone marrow. As to conditions: myelosuppression caused by chemotherapy or radiation; literature; cited from earlier work.
The subject of test [2] is bone marrow progenitor cells. Briefly: Delta assay: expansion of bone marrow progenitor cells in vitro, with c-kit ligand (KL). The class given is cell-based, mouse. The following applies: KL alone, 7 day in vitro incubation; medium alone 0.
Procedure: Delta Assay--Mice are treated with a single dose of 5-FU (150 mg/kg ip). Twenty-four hours later, bone marrow cells are removed and split into 2 aliquots. […] After 14 days, the number of colonies is determined (CFU-1). A second aliquot of cells is placed in liquid culture with single growth factors or drugs or combinations of each to assess the ability of these agents to expand the colony forming cell pool. After 7 days in liquid culture, these cells are harvested and plated in soft agar with IL-1 and GM-CSF as with the first aliquot. After 14 days the number of colonies in the second aliquot is determined (CFU-2). The ratio or delta is calculated as CFU-2/CFU-1 and this ratio is used to ascertain the ability of the growth factors and/or drugs used in the liquid phase to induce growth of the colony forming cells (CFU) or differentiation of pre-CFU to CFU.
Bone marrow cells from 5-FU treated mice are used to enrich for early progenitor cells. The cells are split into 2 aliquots as described in the methods section for the "delta assay." The fold increase is determined by measuring the effect of a 7 day in vitro incubation of the cells with tissue culture medium plus test compound and/or growth factor KL on colony forming dells (CFU). The number of CFUs are then compared with colony formation of the fresh bone marrow cells that were not incubated in vitro to determine the fold increase. Test compound is used in vitro at 0.5 μg/ml.
In another test the test system is IL-6. Briefly: Serum IL-6 production in mice after single s.c. injection (7TD1 bioassay). The class given is in vivo, mouse. As to conditions: serum 4 h post injection. How it is done:
Description of Biological Assays Interleukin 6(IL-6) assay for structure function analysis--Test compounds are dissolved in water and administered subcutaneously in 0.2 ml to deliver a dose of 0.1-10 mg/kg. The less soluble compounds are first dissolved in 100% ethanol and then brought to the appropriate concentration in water. Four hours post injection, the mice are bled and the serum is retrieved. The IL-6 dependent cell line 7TDl is used to assay serial dilutions of sera for IL-6 content. 7TDl cells (1×10^4) are placed in microtiter wells and incubated at 37° C. for 72 hours with standard recombinant mouse IL-6 or with dilutions of serum to be tested. Over the last 6 hours, the cells are pulsed with ^3 H-Tdr (μci). Cells are then harvested and the degree of proliferation determined by the uptake of ^3 H-Tdr as measured by liquid scintillation spectrometry. The concentration of IL-6 in serum is calculated from standard curves utilizing recombinant IL-6 from R&D Systems Inc. and are reported in units of IL-6 activity as defined by the manufacturer.

The subject of test [3] is CSF. Briefly: Serum colony stimulating factor (CSF) assay in mice. In kind it is in vivo, mouse. The following applies: serum 4 hours after injection. How it is done:
Colony forming assays Granulocyte-Macrophage (CFU-GM)--Mice are treated with 150 mg/kg of 5-Fu and treatment with test compound begins 24 hrs. later. On consecutive days, mice are killed by cervical dislocation and the femurs removed under sterile conditions. Femurs are flushed with 1 ml of ice cold medium (Iscove's supplemented with 20% FCS, 1% penicillin-streptomycin, 1% glutamine and 5×10^-5 M 2-mercaptoethanol). Bone marrow cells (5×10^5) are then plated in 12×75 mm tissue culture plates in 3 ml of warm ararose (3%) in Iscove's medium with 100 Units/ml of recombinant mouse GM-CSF purchased from Genzyme (Boston, Mass.). Plates are incubated for 7 days at 37° C. in 5% CO2. After 7 days, colonies of 50 cells or greater are enumerated under a dissecting microscope.
Bone marrow cells are prepared as described above for the CFU-GM assay. The cells are then incubated in soft agar with an 0.3% final concentration of serum taken from mice 4 hours after injection with test compounds. After 7 days of incubation at 37° C., the number of colony forming (CFU) cells per 10^5 plated bone marrow cells is determined by counting colonies of more than 50 cells under a dissecting microscope. The data are reported as CFU/10^5 bone marrow cells.

For test [4], the system named is neutrophils. Briefly: Neutrophil recovery in 5-FU treated mice. In kind it is in vivo, mouse. The following applies: mouse, in vivo. How it is done:
(§1) Circulating Neutrophil Assay--Mice are treated with 5-FU (150 mg/kg) and beginning 24 hrs. later, treated daily with the test compound. Mice are bled daily by retroorbital puncture in heparinized capillary tubes. Circulating WBC counts are determined by Coulter counter. Blood smears are stained with Wright-Geimsa solution and the percentage circulating neutrophils determined by differential counting under a microscope.
(§2) 5-Fluorouracil (5-FU) Induced Neutropenia In Mice--Mice are treated ip with 150 mg/kg of the chemotherapy agent 5-FU which induces a severe loss of neutrophils in the peripheral blood 5-6 days later. Twenty-four hrs. after the dose, treatment with the test compounds is initiated. The effect of the test compounds on recovery of neutrophil progenitor cells in the bone marrow is determined by the CFU-GM assay. The recovery of circulating neutrophils is followed by differential staining of the peripheral blood.
*Data from 10 mice/group on day 7 post treatment with 150 mg/kg of 5FU.
Beginning 24 hrs. after 5FU dose, mice were treated daily with test
compound at concentrations indicated. Neutrophil count for normal mice (n
**Mice treated with 5FU and vehicle only.

Test [5] deals with neutrophils. Kind of test: Neutrophil recovery in cytoxan treated primates. In kind it is in vivo, cynomolgous monkeys. The following applies: for Absolute Neutrophil Count/cu. mm. of Blood: Cytoxan + Ex. 32 (50 μg/kg daily s.c.). On the procedure:
Groups of 4 cynomolgous monkeys are treated on day 1 and day 0 with
cytoxan at 60 mg/kg. Beginning 24 hours after the second cytoxan dose, on
group is treated daily s.c. with 50 μg/kg of test compound and the
other with vehicle (water) only.
*p < 0.05 versus cytoxan only control by Student's t test.

For test [6], the system named is neutrophils. Briefly: Oral dosing: neutrophil recovery in 5-FU treated mice. The following applies: for Neutrophils/cu. mm.: day 7 post 5FU, 0 dose 67 ± 22. The class given is in vivo, mouse. On the procedure:
as §1, §2
Groups of 5 mice are treated with 150 mg/kg of 5-FU. One day later, daily oral dosing with test compounds begins and continues for 10 days. […]

For test [7], the system named is neutrophils. Briefly: Neutrophil recovery in 5-FU treated mice. The following applies: day 8 post 5FU, 0 dose 144 ± 36. In kind it is in vivo, mouse.

Some results are limits rather than exact numbers.

For the compound pimelautide, in the test on CSF [1], the “formation of CSF (in words)” value was “appear to induce the formation of CSF”. The “bone marrow restoration after myelosuppression (in words)” value in the test on bone marrow was “can aid in bone marrow restoration”.

Consider “KL: hemopoietic growth factor c-kit ligand (KL)”, for which the “Fold Increase in CFU” value in test [2] is reported as 66 fold.

For the compound `CCCCCCC(=O)N[C@H](COC(=O)N[C@@H](CCC[C@@H](N)C(=O)O)C(=O)N[C@H](C)C(=O)O)C(=O)O` [Example 32, (R)-N-[(R)-6-carboxy-N^2-[[2-carboxy-2-[(1-oxoheptyl)amino]ethoxy]carbonyl]-L-lysyl]-D-Alanine], the IL-6 was found to be 1340 ± 134 U/ml in the test on IL-6 (0.1 mg/kg s.c.) and 1797 ± 284 U/ml with IL-6 (1.0 mg/kg s.c.). Further, the “CSF production, CFU/100,000 Bone Marrow Cells” value was 154 ± 5 CFU/100,000 Bone Marrow Cells in the test on CSF [3] (0.1 mg/kg) and 137 ± 15 CFU/100,000 Bone Marrow Cells with CSF [3] (1.0 mg/kg). The “neutrophil recovery in 5-FU treated mice (in words)” value with neutrophils [4] is reported as “induce neutrophil recovery in 5-FU treated mice”. The “Absolute Neutrophil Count/cu. mm. of Blood” value in the test on neutrophils [5] (day 0 after cytoxan, cytoxan only 3640 ± 1058) was 3554 ± 1194 /cu. mm. of Blood; in the test with neutrophils [5] (day 1 after cytoxan, cytoxan only 4900 ± 971), 7849 ± 1592 /cu. mm. of Blood; in the test with neutrophils [5] (day 2 after cytoxan, cytoxan only 2689 ± 156) it was 4679 ± 867 /cu. mm. of Blood; with neutrophils [5] (day 3 after cytoxan, cytoxan only 1935 ± 126) it was 1080 ± 264 /cu. mm. of Blood; in the test with neutrophils [5] (day 4 after cytoxan, cytoxan only 1442 ± 344), 370 ± 171 /cu. mm. of Blood; in the test on neutrophils [5] (day 5 after cytoxan, cytoxan only 856 ± 295) it was 455 ± 208 /cu. mm. of Blood. Besides, the “Absolute Neutrophil Count/cu. mm. of Blood” value in the test with neutrophils [5] (day 6 after cytoxan, cytoxan only 1009 ± 292) is given as 518 ± 218 /cu. mm. of Blood; with neutrophils [5] (day 7 after cytoxan, cytoxan only 852 ± 301) it was 1304 ± 1046 /cu. mm. of Blood; in the test on neutrophils [5] (day 8 after cytoxan, cytoxan only 542 ± 233), 1596 ± 1000 /cu. mm. of Blood; in the test with neutrophils [5] (day 9 after cytoxan, *p < 0.05 versus cytoxan only 441 ± 194), 2041 ± 423 /cu. mm. of Blood; with neutrophils [5] (day 10 after cytoxan, cytoxan only 1244 ± 509), 3506 ± 1130 /cu. mm. of Blood; in the test with neutrophils [5] (day 11 after cytoxan, cytoxan only 2053 ± 1002), 4576 ± 673 /cu. mm. of Blood. Further, the “Absolute Neutrophil Count/cu. mm. of Blood” value is on record as 3761 ± 1394 /cu. mm. of Blood in the test on neutrophils [5] (day 12 after cytoxan, cytoxan only 1885 ± 678); 3751 ± 1278 /cu. mm. of Blood with neutrophils [5] (day 13 after cytoxan, cytoxan only 3502 ± 2297); 3106 ± 520 /cu. mm. of Blood in the test on neutrophils [5] (day 14 after cytoxan, cytoxan only 3816 ± 1674). For the same compound, the “recovery of neutrophils in cytoxan treated primates (in words)” value with neutrophils [5] (monkey, in vivo) is reported as “accelerates the recovery of neutrophils”. For the same compound, the “recovery to control levels” value with neutrophils [5] (versus a day 10 recovery for the cytoxan only group) is at most 7 days. Moreover, the Neutrophils/cu. mm. with neutrophils [6] (1 mg/kg daily oral) is 547 ± 232 /cu. mm; with neutrophils [6] (10 mg/kg daily oral) it was 1844 ± 814 /cu. mm; in the test on neutrophils [7] (100 μg/kg daily), 982 ± 150 /cu. mm; with neutrophils [7] (1000 μg/kg daily), 1892 ± 293 /cu. mm. Moreover, in the test on neutrophils [6] (oral), the “neutrophil recovery in 5-FU treated mice when given orally (in words)” value was “active in accelerating neutrophil recovery”.

muroctasin: the “formation of CSF (in words)” value with CSF [1] was “appear to induce the formation of CSF”. Also, the “bone marrow restoration after myelosuppression (in words)” value in the test on bone marrow is “can aid in bone marrow restoration”.

(Values after patent publication US5312831A, “Urethanes and ureas that induce cytokine production” (American Cyanamid Company, priority 1993, dated 1994).)
